# In PMC10041521, “Fluorescent Activity-Based Probe To Image and Inhibit Factor XIa Activity in Human Plasma” (Journal of Medicinal Chemistry, 2023):
# “And” between values parts separate entries of the source, which are not always exact repeats. Identical values can stand only once.
# How the values were obtained:
# Format in all cases: biochemical
# APC = target: T1, APC (Homo sapiens, UniProt P04070); test: Inhibition kinetics (kobs/I) of inhibitor and fluorescent ABP; conditions: pseudo-first-order, ABP/inhibitor 308 nM to 50 μM, 10 nM enzyme, substrate 154 μM SMA5, 37 °C, 30 min; mean ± s.d., n = 3; SD
# T1 construct: from tissue; host or cells: fresh frozen plasma
# Method: (§1) Protein C, factor X, and prothrombin were purified from fresh frozen plasma and then activated as previously described.[33]
# (§2) All kinetic assays were performed using a spectrofluorometer (Molecular Devices SpectraMax Gemini XPS) on 96-well, white, flat bottom, nontreated plates (Corning). The parameters were as follows: excitation/emission wavelength, 355/460 nm (cutoff, 455 nm); varying concentrations of substrates, ABPs, inhibitor, and enzymes. The assay buffer (20 mM Tris-base, 150 mM NaCl, 5 mM CaCl2, pH 7.4) was prepared at room temperature, and the enzyme kinetic studies were performed at 37 °C. All enzymes were preincubated in assay buffer for 15 min at 37 °C before addition to the wells. Each assay was repeated at least twice, and the data represent the average of these repetitions. The obtained results were analyzed using SoftMax (Molecular Devices), GraphPad Prism, and Microsoft Excel software.
# (§3) The kobs/I parameters for APC, thrombin, fXa, and fXIa were measured under pseudo-first-order conditions. […] Next, 60 μL of APC, thrombin, fXa, or fXIa (at a concentration of 10 nM) preincubated at 37 °C was added, and the fluorescence increase over time was measured (λex = 355 nm, λem = 460 nm) for 30 min. The kobs/I parameters were calculated in GraphPad Prism and Microsoft Excel software.[41]
# fXa = target: T2, fXa (Homo sapiens, UniProt P00742); test: as above; conditions: pseudo-first-order, ABP/inhibitor 308 nM to 50 μM, 10 nM enzyme, substrate 50 μM SMII18, 37 °C, 30 min; mean ± s.d., n = 3; SD
# T2 construct: from tissue; host or cells: fresh frozen plasma
# Method: as §1, §2, §3
# fXIa [1] = target: T3, fXIa (Homo sapiens, UniProt P03951); test: Labeling of purified coagulation factors with ABPs, SDS-PAGE and blot; design: complete conversion of the single chain zymogen to the two-chain active form; made in house; host or cells: HEK293 cells expressing EBNA (pCEP4 vector); conditions: 200 nM fXIa preincubated with 5 μM inhibitor for 60 min, then probe 1:1, 30 min
# Method: To determine biotin-labeled ABPs selectivity, four purified coagulation factors (APC, thrombin, fXa, and fXIa) with a constant concentration of 200 nM were incubated separately with each probe (the probe/enzyme ratio was 1) in assay buffer for 30 min at 37 °C. Each enzyme was incubated with each probe in a volume of 40 μL followed by reduction with 20 μL of 3 × SDS/DTT for 5 min at 95 °C. The first well was loaded with 0.5 μL of the protein marker PageRuler Prestained Protein Ladder (Thermo Scientific), and then 10 μL of each sample was run on a 12% (w/v) 15-well gel. SDS–PAGE separation was performed at 200 V for 39 min followed by a wet tank transfer to a nitrocellulose membrane (0.2 μm, Bio-Rad) at 10 V for 60 min. The membrane was blocked with 2.5% BSA in TBS-T (Tris-buffered saline with 0.1% (v/v) Tween 20) for 60 min at room temperature. Next, the membrane was incubated with fluorescent streptavidin Alexa Fluor 647 conjugate (dilution 1:10,000 in TBS-T with 1% BSA) for 60 min. The biotin-labeled ABPs were detected at 658 nm using an Azure Biosystems Sapphire Biomolecular Imager and Azure Spot Analysis software.
# For fluorescently labeled probe sample preparation, electrophoresis and membrane transfer were performed as described above. When testing the inhibitor utility, 200 nM fXIa was incubated with inhibitor (final inhibitor concentration 5 μM) for 60 min prior to probe addition. After the membrane was blocked with 2.5% BSA in TBS-T (60 min), the labeled proteins were directly imaged with a […] laser using an Azure Biosystems Sapphire Biomolecular Imager and Azure Spot Analysis software.
# fXIa [2] = target: T3, fXIa; test: Inhibition kinetics (kobs/I) of inhibitor and fluorescent ABP; design: complete conversion of the single chain zymogen to the two-chain active form; made in house; host or cells: HEK293 cells expressing EBNA (pCEP4 vector); conditions: pseudo-first-order, ABP/inhibitor 308 nM to 50 μM, 10 nM enzyme, substrate 100 μM SMX1, 37 °C, 30 min, corrected for substrate KM; mean ± s.d., n = 3; SD
# Method: as §2
# as §3, with “conditions. Inhibitor and ABP were serially diluted in assay buffer until the seventh well to obtain concentrations ranging from 308 nM to 50 μM.” for “conditions.”
# T3 sequence (P03951 388-625 limits assumed): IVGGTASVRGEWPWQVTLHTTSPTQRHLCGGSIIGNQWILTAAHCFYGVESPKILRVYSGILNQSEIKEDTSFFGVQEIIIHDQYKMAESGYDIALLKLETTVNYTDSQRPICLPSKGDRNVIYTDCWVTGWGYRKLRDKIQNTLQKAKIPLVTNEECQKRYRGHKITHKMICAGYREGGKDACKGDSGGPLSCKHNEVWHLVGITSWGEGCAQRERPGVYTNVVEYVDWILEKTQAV
# T3 sequence (P03951 19-387 partner limits assumed): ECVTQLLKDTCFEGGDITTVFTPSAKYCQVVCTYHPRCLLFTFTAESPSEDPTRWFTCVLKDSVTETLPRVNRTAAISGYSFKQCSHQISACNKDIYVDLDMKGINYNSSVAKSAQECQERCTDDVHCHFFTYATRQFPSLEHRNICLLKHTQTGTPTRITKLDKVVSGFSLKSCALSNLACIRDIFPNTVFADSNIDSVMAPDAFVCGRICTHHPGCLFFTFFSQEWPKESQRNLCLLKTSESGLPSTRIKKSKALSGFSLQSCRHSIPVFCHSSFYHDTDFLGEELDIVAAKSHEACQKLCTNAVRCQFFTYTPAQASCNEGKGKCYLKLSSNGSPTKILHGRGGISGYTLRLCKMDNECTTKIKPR
# T1 sequence (P04070 212-461 limits assumed): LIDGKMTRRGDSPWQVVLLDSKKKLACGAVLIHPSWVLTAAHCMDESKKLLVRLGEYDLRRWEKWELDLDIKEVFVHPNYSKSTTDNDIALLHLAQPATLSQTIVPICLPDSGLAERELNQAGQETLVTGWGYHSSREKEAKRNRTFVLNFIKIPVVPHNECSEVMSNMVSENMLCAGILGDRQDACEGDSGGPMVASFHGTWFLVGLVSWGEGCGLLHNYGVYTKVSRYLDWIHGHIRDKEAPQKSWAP
# T1 sequence (P04070 43-197 partner limits assumed): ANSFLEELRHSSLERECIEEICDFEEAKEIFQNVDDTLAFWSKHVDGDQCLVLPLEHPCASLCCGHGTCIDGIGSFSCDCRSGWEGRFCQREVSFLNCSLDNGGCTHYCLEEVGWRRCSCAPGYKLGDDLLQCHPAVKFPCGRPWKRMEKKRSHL
# T2 sequence (P00742 235-488 limits assumed): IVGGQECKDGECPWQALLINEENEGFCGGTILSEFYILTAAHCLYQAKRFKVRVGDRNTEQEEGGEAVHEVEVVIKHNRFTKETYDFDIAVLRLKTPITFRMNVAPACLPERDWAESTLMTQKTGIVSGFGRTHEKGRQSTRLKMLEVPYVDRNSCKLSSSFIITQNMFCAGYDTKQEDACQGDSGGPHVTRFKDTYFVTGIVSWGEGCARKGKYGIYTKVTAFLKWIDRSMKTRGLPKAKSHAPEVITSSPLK
# T2 sequence (P00742 41-179 partner limits assumed): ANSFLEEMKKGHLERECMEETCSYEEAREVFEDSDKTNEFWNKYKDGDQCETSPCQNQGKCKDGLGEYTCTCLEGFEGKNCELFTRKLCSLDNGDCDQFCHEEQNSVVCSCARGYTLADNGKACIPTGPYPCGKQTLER
substance,measurement,setting,value
"Ac-Tyr(2,6-Cl2-Z)-Nle-Glu(Bzl)-ArgP(OPh)2 [I-SMXI5]",kobs/I APC,APC,"1,570 ± 20 M^-1 s^-1"
same,kobs/I fXa,fXa,100 ± 13 M⁻¹ s⁻¹
same,effect of preblocking fXIa on P-SMXI52 labeling,fXIa [1],completely inhibited the fluorescent signal
same,kobs/I fXIa,fXIa [2],"54,700 ± 2,800 M^-1 s^-1 and 54,700 ± 2800 M^-1 s^-1"
